“Also recorded” adds a separate entry of the source.
Assays:
[1] = tested on: RA chip (HUVECs, RA patient derived FLS, RA patient monocyte-derived macrophage); experiment: cytokine secretion profile of the RA chip with versus without TNF-α priming; assay type: cell-based, human
Text: To study blood and synovial cells from RA patients to understand the biological basis for response/non-response to TNFi, disclosed herein is a microfluidics-based 3D vascularized organ-on-a-chip model of RA. The disclosed microphysiological system integrates key features that replicate in vivo synovial architecture and monitors dynamic interactions between the critical cell types of RA, such as monocyte, monocyte-derived macrophage, and fibroblast-like synoviocytes (FLS), in real time with live-cell imaging. The RA chip is compartmentalized into three functional regions, which are partitioned by regularly spaced trapezoid micropillars that confine cell-embedded hydrogels, by balancing surface tension and capillary forces, to mimic the native in vivo tissue architecture of synovitis. The different tissue regions are a central sinus that is lined with human umbilical vein endothelial cells (HUVECs), a synovial sublining, which contains vessels extending from the central sinus, and a synovial lining region (outer ring) connected with four medium reservoirs for medium supply. HUVECs and RA patient derived FLS, and RA patient monocyte-derived macrophage are infused into different regions sequentially and cultured for 7 days to establish a microvessel network and a layered structure of synovium.
With this established synovium structure on-chip, first profiled is the cytokine environment of the engineered RA chip at two conditions (with TNF-α priming versus without) to validate the inflammation status of the RA chip.
Following the established inflammation in the RA chip, work pivoted to whether the RA inflammation can be maintained on-chip for a long period. The RA chip cultured for over 4 days and quantified inflammatory cytokines secretion with IL-6 and GM-CSF as indicator. […] It was previously shown that pre-treatment circulating type I IFN (T1IFN) activity predicts non-response to TNFi (Wampler-Muskardin et al., Front Immunol, 2020). Remarkably, no patient with a ratio >1.3 achieved remission or low disease activity. […]

monocytes in the RA chip = experiment: monocyte migration in the RA chip, live imaging microscopy; assay type: cell-based, human; conditions: RA chip primed with TNF-α versus not primed
Text: Following the established inflammation in the RA chip, work pivoted to whether the RA inflammation can be maintained on-chip for a long period. The RA chip cultured for over 4 days and quantified inflammatory cytokines secretion with IL-6 and GM-CSF as indicator. […] It was previously shown that pre-treatment circulating type I IFN (T1IFN) activity predicts non-response to TNFi (Wampler-Muskardin et al., Front Immunol, 2020). Remarkably, no patient with a ratio >1.3 achieved remission or low disease activity. It is also possible to use single cell gene expression analysis to study blood monocytes in RA patients with high vs. low IFN-β-to-α activity ratio. […] Further on, the behaviors of monocytes in the RA chip are investigated by infusing monocytes into the central sinus of the chip, from which monocytes can distribute into the microvessel network and extravasate out of vessel. […] In addition, the effect of circulating T1IFNs on monocyte activation in the RA chip was studied.
The biomimetic Synovium-on-a-Chip (FIG. 4A) contains two areas to mimic the outer layer (lining layer) and an inner layer (sublining layer) of the synovium. […]
To confirm the role of TNF-α in regulating the RA inflammation, monitored first is monocyte dynamics in the RA device which is primed with or without TNF-α. […]

TNF-α
secretion of IL-6 and GM-CSF ([1]; RA chip cultured for over 4 days after transient TNF-α treatment): generally decreased | secretion of cytokines (IL-6, GM-CSF, IL-8, MCP-1, MCP-3, MIP-3α) ([1]; RA chip with TNF-α priming versus without): increased secretion | inflammatory environment of the RA chip ([1]; primed with TNF-α at an interval of 2-3 days): maintained over 7 days | monocyte migration dynamics (migration velocity and distance) (monocytes in the RA chip): promoted monocyte migration dynamics; also recorded: Enhanced migration behaviors
